For the first experiment, the target named is T1, HDM2 (Homo sapiens, UniProt Q00987).
T1 construct: Thioredoxin (N); made in house; host or cells: E. coli strain BL21(DE3)Rosetta
T1 sequence (Q00987 17-125): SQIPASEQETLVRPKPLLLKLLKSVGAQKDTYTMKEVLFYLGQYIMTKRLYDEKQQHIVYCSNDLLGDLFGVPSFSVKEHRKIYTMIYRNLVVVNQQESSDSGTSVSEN
Kind of experiment: FRET assay (HDM2 inhibition; method not described in this part). The format is binding. The conditions noted are these: Table 4.
`Cc1ccc(OCCCN2CCN(C)CC2)c(-c2nc3nc(C(=O)O)nc(N[C@H](C)C4CC4)c3n2Cc2ccc(Cl)cc2)c1` [Example 4.17, (R)-7-(4-chlorobenzyl)-6-(1-cyclopropylethylamino)-8-(5-methyl-2-(3-(4-methylpiperazin-1-yl)propoxy)phenyl)-7H-purine-2-carboxylic acid] came in with a concentration for half-maximal inhibition (IC50) of 507 nM.

The compound `Cc1ccc(O)c(-c2nc3nc(C(=O)O)nc(N[C@H](C)C4CC4)c3n2Cc2ccc(Cl)cc2)c1` [Example 4.18, (R)-7-(4-chlorobenzyl)-6-((1-cyclopropylethyl)amino)-8-(2-hydroxy-5-methylphenyl)-7H-purine-2-carboxylic acid] registered an IC50 of 347 nM. Still for that read-out and setting: as for `Cc1ccc(OCC(O)CO)c(-c2nc3nc(C(=O)O)nc(N[C@H](C)C4CC4)c3n2Cc2ccc(Cl)cc2)c1` (stereo partly drawn) [Example 4.19, 7-(4-chlorobenzyl)-6-(((R)-1-cyclopropylethyl)amino)-8-(2-(2,3-dihydroxypropoxy)-5-methylphenyl)-7H-purine-2-carboxylic acid], the figure is 586 nM. On the same count and under the same terms, as for `Cc1ccc(OCCCO)c(-c2nc3nc(C(=O)O)nc(N[C@H](C)C4CC4)c3n2Cc2ccc(Cl)cc2)c1` [Example 4.20, (R)-7-(4-chlorobenzyl)-6-((1-cyclopropylethyl)amino)-8-(2-(3-hydroxypropoxy)-5-methylphenyl)-7H-purine-2-carboxylic acid], the figure is 112 nM.

The same experiment, now with this note: Table 5.
For `Cc1cccc(-c2nc3nc(C(=O)O)nc(N[C@H](C)C4CC4)c3n2C(C)c2ccc(Cl)cc2)c1` (stereo partly drawn) [Example 5.1, 7-(1-(4-chlorophenyl)ethyl)-6-(((R)-1-cyclopropylethyl)amino)-8-(3-methylphenyl)-7H-purine-2-carboxylic acid], it took 855 nM to reach half-maximal inhibition (IC50). Still for that read-out and setting: next, `Cc1cccc(-c2nc3nc(C(=O)O)nc(NCC4CC4)c3n2C(C)c2ccc(Cl)cc2)c1` (stereo not shown) [Example 5.2, 7-(1-(4-chlorophenyl)ethyl)-6-((cyclopropylmethyl)amino)-8-(m-tolyl)-7H-purine-2-carboxylic acid]: 984 nM; `Cc1cccc(-c2nc3nc(C(=O)O)nc(N[C@@H](C)C4CC4)c3n2C(C)c2ccc(Cl)cc2)c1` (stereo partly drawn) [Example 5.3, 7-(1-(4-chlorophenyl)ethyl)-6-((S)-1-cyclopropylethylamino)-8-(3-methylphenyl)-7H-purine-2-carboxylic acid]: 601 nM.

The compound `Cc1cccc(-c2nc3nc(C(=O)O)nc(N[C@H](C)C4CC4)c3n2Cc2ccc(F)c(C(F)(F)F)c2)c1` [Example 5.4, 6-{[(1R)-1-cyclopropylethyl]amino}-7-[4-fluoro-3-(trifluoromethyl)benzyl]-8-(3-methylphenyl)-7H-purine-2-carboxylic acid] registered an IC50 of 4140 nM. On the same count and under the same terms, next, `CCOc1ccc(C(F)(F)F)cc1Cn1c(-c2cccc(C)c2)nc2nc(C(=O)O)nc(N[C@H](C)C3CC3)c21` [Example 5.5, 6-{[(1R)-1-cyclopropylethyl]amino}-7-(2-ethoxy-5-(trifluoromethyl)benzyl)-8-(3-methylphenyl)-7H-purine-2-carboxylic acid]: 2740 nM; `CCOc1ccccc1Cn1c(-c2cccc(C)c2)nc2nc(C(=O)O)nc(N[C@H](C)C3CCC3)c21` [Example 5.6, 6-{[(1R)-1-cyclobutylethyl]amino}-7-(2-ethoxybenzyl)-8-(3-methylphenyl)-7H-purine-2-carboxylic acid]: 1840 nM.

In turn, `Cc1cccc(-c2nc3nc(C(=O)O)nc(N[C@H](C)C4CC4)c3n2Cc2ccc(C(C)C)cc2)c1` [Example 5.7, 6-{[(1R)-1-cyclopropylethyl]amino}-7-[4-(1-methylethyl)benzyl]-8-(3-methylphenyl)-7H-purine-2-carboxylic acid] came in with a concentration for half-maximal inhibition (IC50) of 3550 nM. Compound `Cc1cccc(-c2nc3nc(C(=O)O)nc(N[C@H](C)C4CC4)c3n2Cc2ccc(OC(F)(F)F)cc2)c1` [Example 5.8, 6-{[(1R)-1-cyclopropylethyl]amino}-8-(3-methylphenyl)-7-[4-(trifluoromethoxy)benzyl]-7H-purine-2-carboxylic acid] came in with an IC50 of 149 nM. Still for that read-out and setting: as for `Cc1cccc(-c2nc3nc(C(=O)O)nc(N[C@H](C)C4CC4)c3n2Cc2ccc(C(F)(F)F)c(F)c2)c1` [Example 5.9, 6-{[(1R)-1-cyclopropylethyl]amino}-7-[3-fluoro-4-(trifluoromethyl)benzyl]-8-(3-methylphenyl)-7H-purine-2-carboxylic acid], the figure is 119 nM; as for `Cc1cccc(-c2nc3nc(C(=O)O)nc(N[C@H](C)C4CCC4)c3n2Cc2ccc(C3CC3)cc2)c1` [Example 5.10, 6-{[(1R)-1-cyclobutylethyl]amino}-7-(4-cyclopropylbenzyl)-8-(3-methylphenyl)-7H-purine-2-carboxylic acid], 270 nM. Turning to `Cc1cccc(-c2nc3nc(C(=O)O)nc(N[C@H](C)C4CCC4)c3n2Cc2ccc(Cl)cc2Cl)c1` [Example 5.11, 6-{[(1R)-1-cyclobutylethyl]amino}-7-(2,4-dichlorobenzyl)-8-(3-methylphenyl)-7H-purine-2-carboxylic acid], inhibition was half-maximal at 259 nM (IC50). `Cc1cccc(-c2nc3nc(C(=O)O)nc(N[C@H](C)C4CCC4)c3n2Cc2ccc(C(F)(F)F)cc2Cl)c1` [Example 5.12, 7-[2-chloro-4-(trifluoromethyl)benzyl]-6-{[(1R)-1-cyclobutylethyl]amino}-8-(3-methylphenyl)-7H-purine-2-carboxylic acid] registered an IC50 of 94.6 nM. The same measure, in the same setting: as for `Cc1cccc(-c2nc3nc(C(=O)O)nc(N[C@H](C)C4CCC4)c3n2Cc2ccc(OC(F)F)cc2)c1` [Example 5.13, 6-{[(1R)-1-cyclobutylethyl]amino}-7-[4-(difluoromethoxy)benzyl]-8-(3-methylphenyl)-7H-purine-2-carboxylic acid], the figure is 128 nM. Compound `Cc1cccc(-c2nc3nc(C(=O)O)nc(N[C@H](C)C4CCC4)c3n2Cc2ccc(OC(F)(F)F)c(F)c2)c1` [Example 5.14, 6-{[(1R)-1-cyclobutylethyl]amino}-7-[3-fluoro-4-(trifluoromethoxy)benzyl]-8-(3-methylphenyl)-7H-purine-2-carboxylic acid] displayed an IC50 of 36.4 nM.

In turn, `Cc1cccc(-c2nc3nc(C(=O)O)nc(N[C@H](C)C4CC4)c3n2Cc2ccc(C(F)(F)F)c(Cl)c2)c1` [Example 5.15, 7-[3-chloro-4-(trifluoromethyl)benzyl]-6-{[(1R)-1-cyclopropylethyl]amino}-8-(3-methylphenyl)-7H-purine-2-carboxylic acid] gave a half-inhibitory concentration (IC50) of 609 nM. As to `Cc1cccc(-c2nc3nc(C(=O)O)nc(N[C@H](C)C4CC4)c3n2Cc2ccccc2C(F)(F)F)c1` [Example 5.16, 6-{[(1R)-1-cyclopropylethyl]amino}-8-(3-methylphenyl)-7-[2-(trifluoromethyl)benzyl]-7H-purine-2-carboxylic acid], the half-inhibitory concentration (IC50) is 8330 nM.

The compound `Cc1cccc(-c2nc3nc(C(=O)O)nc(N[C@H](C)C4CCC4)c3n2Cc2ccc(C(F)(F)F)cc2F)c1` [Example 5.17, 6-{[(1R)-1-cyclobutylethyl]amino}-7-[2-fluoro-4-(trifluoromethyl)benzyl]-8-(3-methylphenyl)-7H-purine-2-carboxylic acid] showed a half-inhibitory concentration (IC50) of 74.3 nM. The compound `CCOc1cc(C(F)(F)F)ccc1Cn1c(-c2cccc(C)c2)nc2nc(C(=O)O)nc(N[C@H](C)C3CCC3)c21` [Example 5.18, 6-{[(1R)-1-cyclobutylethyl]amino}-7-[2-ethoxy-4-(trifluoromethyl)benzyl]-8-(3-methylphenyl)-7H-purine-2-carboxylic acid] displayed a 50% inhibitory concentration (IC50) of 207 nM.

`COc1ccc(Cn2c(-c3cccc(C)c3)nc3nc(C(=O)O)nc(N[C@H](C)C4CCC4)c32)cc1` [Example 5.19, 6-{[(1R)-1-cyclobutylethyl]amino}-7-(4-methoxybenzyl)-8-(3-methylphenyl)-7H-purine-2-carboxylic acid]: the half-inhibitory concentration (IC50) came to 582 nM. Same read-out and setting: as for `CCc1ccc(Cn2c(-c3cccc(C)c3)nc3nc(C(=O)O)nc(N[C@H](C)C4CC4)c32)cc1` [Example 5.20, 6-{[(1R)-1-cyclopropylethyl]amino}-7-(4-ethylbenzyl)-8-(3-methylphenyl)-7H-purine-2-carboxylic acid], the figure is 1200 nM. Still for that read-out and setting: next, `Cc1ccc(Cn2c(-c3cccc(C)c3)nc3nc(C(=O)O)nc(N[C@H](C)C4CC4)c32)cc1` [Example 5.21, 6-{[(1R)-1-cyclopropylethyl]amino}-7-(4-methylbenzyl)-8-(3-methylphenyl)-7H-purine-2-carboxylic acid]: 1200 nM.

The term IC50 denotes the concentration needed to halve the response being measured. A higher IC50 goes with lower potency.

The values are drawn from patent EP2951180B1, “2,6,7,8 SUBSTITUTED PURINES AS HDM2 INHIBITORS” (Merck Sharp & Dohme Corp., priority 2013, dated 2014).
